Measured values taken from patent US6207399A, “Methods of determining endogenous thrombin potential (ETP) and thrombin substrates for use in said methods” (Hemker; Hendrik Coenraad, priority 1995, dated 2001).
Peptide text beside a SMILES is read from it. * marks the point of attachment. pNA = O=[N+]([O-])c1ccc(N*)cc1

Tested on: thrombin generation in tissue factor triggered plasma
Experiment: Manual determination of thrombin generation in plasma (subsampling method) and calculated prothrombinase activity
Type: biochemical, human
Experimental: Manual determination of thrombin generation in plasma: Extrinsic pathway: To 480 μL defibrinated plasma were added: 172 μL buffer A which contains the substrate at concentrations between 0 to 2000 μM and 20 μL of a 54 μM phospholipid solution (final concentration: 1.5 μM). After incubation of 4 min at 37° C., 24 μL tissue factor (undiluted) was added. Thrombin formation started at zero time by adding 24 μL of a 0.5 M CaCl2 solution (final concentration: 16.67 mM). At regular time intervals of 12 s samples of 10 μL were subsampled as described above. From the amidolytic activities thus obtained, the thrombin generation curve can be drawn. […] Intrinsic pathway: To 480 μL defibrinated plasma were added: 168 μL buffer A which contains the substrate at concentrations between 0 to 1000 μM and 48 μL Actin FS (undiluted). This mixture was intensively mixed and incubated for 4 min at 37° C. Thrombin generation was started at zero time by adding 24 μL of a 0.5 M CaCl2 solution (final concentration: 16.67 mM).
Influence of the substrate on the prothrombinase-complex: With the obtained decay constants and from the curves obtained by the subsampling method we calculated the course of prothrombin conversion and the course of prothrombinase concentration.
Manual determination of thrombin generation in plasma: Extrinsic pathway: To 480 μL defibrinated plasma were added: 172 μL buffer A which contained the substrate at concentrations between 0 to 2000 μM and 20 μL of a 54 μM phospholipid solution (final concentration: 1.5 μM). After incubation for 4 min at 37° C., 24 μL tissue factor (undiluted) was added. Thrombin formation started at zero time by adding 24 μL of a 0.5 M CaCl2 solution (final concentration: 16.67 mM). At regular time intervals of 12 s samples of 10 μL were subsampled as described above. From the amidolytic activities thus obtained, the thrombin generation curve can be drawn.
Influence of the substrate on the prothrombinase-compzex: With the obtained decay constants and from the curves obtained by the subsampling method we calculated the course of prothrombin conversion and the course of prothrombinase concentration.

k2,M : k2 determined by the subsampling method ([S] 200 μM in plasma): 0.234 min⁻¹ | k2,M : k2 determined by the subsampling method ([S] 500 μM in plasma): 0.207 min⁻¹ | k2,M : k2 determined by the subsampling method ([S] 1000 μM in plasma): 0.199 min⁻¹ | influence on the prothrombinase complex / coagulation cascade (calculated from decay constants and manual thrombin generation curves): clearly decreases its concentration
SMILES: CC(C)[C@H](N)C(=O)N[C@@H](CCCNC(=N)N)C(=O)Nc1ccc([N+](=O)[O-])cc1.Cl.Cl [2HCl.H-Val-Arg-pNA] (H-Val-Arg-pNA)
